pIC50: −log10 of the molar value.
Columns and labels:
Format in all cases: ADME
CYP2D6 [1] = target: T1, CYP2D6 (Homo sapiens, UniProt P10635); assay: Inhibition of CYP2D6 in human liver microsomes assessed as enzyme-mediated metabolite formation at 3 uM using dextromethorphan as substrate preincubated for 20 mins followed by substrate addition measured after 30 mins in presence of NADPH by LC-MS/MS analysis relative to control; set-up: scale not given: the % may be the effect or the level left; settings: probe dextromethorphan, read-out: Activity
T1 sequence (P10635 whole entry): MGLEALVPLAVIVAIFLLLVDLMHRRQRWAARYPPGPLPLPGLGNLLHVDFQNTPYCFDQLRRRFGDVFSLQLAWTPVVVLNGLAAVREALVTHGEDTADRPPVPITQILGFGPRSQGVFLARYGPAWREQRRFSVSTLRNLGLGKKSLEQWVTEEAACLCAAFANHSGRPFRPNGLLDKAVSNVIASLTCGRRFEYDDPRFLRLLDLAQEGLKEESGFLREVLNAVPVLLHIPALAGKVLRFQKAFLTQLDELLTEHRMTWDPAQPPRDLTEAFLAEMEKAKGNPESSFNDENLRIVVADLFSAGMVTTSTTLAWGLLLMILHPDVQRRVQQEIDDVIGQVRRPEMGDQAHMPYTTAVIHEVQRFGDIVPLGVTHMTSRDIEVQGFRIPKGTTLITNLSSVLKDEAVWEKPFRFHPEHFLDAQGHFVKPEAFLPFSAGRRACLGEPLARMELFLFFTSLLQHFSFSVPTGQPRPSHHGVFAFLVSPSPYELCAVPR

CYP2C9 = CYP2C9 (Homo sapiens, UniProt P11712); assay: Inhibition of CYP2C9 in human liver microsomes assessed as enzyme-mediated metabolite formation at 0.3 uM using diclofenac as substrate incubated for 5 mins followed by NADPH addition measured after 30 mins by LC-MS/MS analysis relative to control; set-up: scale not given: the % may be the effect or the level left; settings: probe diclofenac, read-out: Activity
Chain of CYP2C9 (P11712 whole entry): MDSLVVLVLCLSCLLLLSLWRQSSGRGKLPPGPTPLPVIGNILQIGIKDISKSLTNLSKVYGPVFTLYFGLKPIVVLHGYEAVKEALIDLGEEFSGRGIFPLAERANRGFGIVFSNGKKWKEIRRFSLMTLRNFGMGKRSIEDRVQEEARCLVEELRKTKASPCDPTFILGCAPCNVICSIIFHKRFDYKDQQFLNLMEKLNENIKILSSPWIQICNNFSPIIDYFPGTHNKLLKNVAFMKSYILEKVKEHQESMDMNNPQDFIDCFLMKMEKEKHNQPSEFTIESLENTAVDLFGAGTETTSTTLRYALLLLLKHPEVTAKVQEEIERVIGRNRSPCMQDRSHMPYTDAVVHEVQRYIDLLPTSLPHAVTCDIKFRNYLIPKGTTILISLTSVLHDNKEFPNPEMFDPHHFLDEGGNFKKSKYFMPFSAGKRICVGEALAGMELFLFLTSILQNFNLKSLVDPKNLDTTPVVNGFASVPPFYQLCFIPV

CYP3A4 [2] = target: T2, CYP3A4 (Homo sapiens, UniProt P08684); assay: Inhibition of CYP3A4 in human liver microsomes assessed as enzyme-mediated metabolite formation at 0.3 uM using testosterone as substrate preincubated for 20 mins followed by substrate addition measured after 30 mins in presence of NADPH by LC-MS/MS analysis relative to control; set-up: scale not given: the % may be the effect or the level left; settings: probe testosterone, read-out: Activity
T2 sequence (P08684 whole entry): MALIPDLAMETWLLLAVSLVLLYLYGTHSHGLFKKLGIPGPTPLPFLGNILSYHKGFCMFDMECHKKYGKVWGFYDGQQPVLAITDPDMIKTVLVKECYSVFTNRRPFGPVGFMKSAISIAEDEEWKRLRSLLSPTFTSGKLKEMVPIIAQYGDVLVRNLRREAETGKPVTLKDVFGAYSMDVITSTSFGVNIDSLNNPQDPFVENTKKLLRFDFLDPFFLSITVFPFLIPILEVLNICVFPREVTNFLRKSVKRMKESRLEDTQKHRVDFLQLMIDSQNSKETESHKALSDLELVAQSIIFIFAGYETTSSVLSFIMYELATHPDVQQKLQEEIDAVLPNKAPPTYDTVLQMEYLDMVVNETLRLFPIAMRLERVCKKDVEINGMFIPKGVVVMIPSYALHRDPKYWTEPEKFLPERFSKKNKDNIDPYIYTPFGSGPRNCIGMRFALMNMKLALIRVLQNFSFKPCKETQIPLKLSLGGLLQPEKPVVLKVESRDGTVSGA

CYP2D6 [3] = target: T1, CYP2D6; assay: Inhibition of CYP2D6 in human liver microsomes assessed as enzyme-mediated metabolite formation at 10 uM using dextromethorphan as substrate preincubated for 20 mins followed by substrate addition measured after 30 mins in presence of NADPH by LC-MS/MS analysis relative to control; set-up: scale not given: the % may be the effect or the level left; settings: probe dextromethorphan, read-out: Activity
CYP2A6 [4] = target: T3, CYP2A6 (Homo sapiens, UniProt P11509); assay: Inhibition of CYP2A6 in human liver microsomes assessed as enzyme-mediated metabolite formation at 1 uM using coumarin as substrate incubated for 5 mins followed by NADPH addition measured after 30 mins by LC-MS/MS analysis relative to control; set-up: scale not given: the % may be the effect or the level left; settings: probe coumarin, read-out: Activity
T3 sequence (P11509 whole entry): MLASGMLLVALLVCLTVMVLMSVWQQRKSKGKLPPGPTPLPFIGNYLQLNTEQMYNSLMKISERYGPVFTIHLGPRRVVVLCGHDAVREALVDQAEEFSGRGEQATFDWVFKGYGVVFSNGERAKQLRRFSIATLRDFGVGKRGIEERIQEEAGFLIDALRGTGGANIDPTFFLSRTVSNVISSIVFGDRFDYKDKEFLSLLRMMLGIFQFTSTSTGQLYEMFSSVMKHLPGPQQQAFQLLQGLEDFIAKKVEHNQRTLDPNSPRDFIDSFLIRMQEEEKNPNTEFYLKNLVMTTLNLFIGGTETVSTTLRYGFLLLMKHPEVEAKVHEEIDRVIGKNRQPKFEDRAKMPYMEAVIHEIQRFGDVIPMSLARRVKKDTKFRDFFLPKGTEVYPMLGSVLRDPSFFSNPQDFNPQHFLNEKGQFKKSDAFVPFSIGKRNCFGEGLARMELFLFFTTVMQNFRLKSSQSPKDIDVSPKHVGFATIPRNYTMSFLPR

CYP2B6 = target: T4, CYP2B6 (Homo sapiens, UniProt P20813); assay: Inhibition of CYP2B6 in human liver microsomes assessed as enzyme-mediated metabolite formation at 30 uM using bupropion as substrate incubated for 5 mins followed by NADPH addition measured after 30 mins by LC-MS/MS analysis relative to control; set-up: scale not given: the % may be the effect or the level left; settings: probe bupropion, read-out: Activity
T4 sequence (P20813 whole entry): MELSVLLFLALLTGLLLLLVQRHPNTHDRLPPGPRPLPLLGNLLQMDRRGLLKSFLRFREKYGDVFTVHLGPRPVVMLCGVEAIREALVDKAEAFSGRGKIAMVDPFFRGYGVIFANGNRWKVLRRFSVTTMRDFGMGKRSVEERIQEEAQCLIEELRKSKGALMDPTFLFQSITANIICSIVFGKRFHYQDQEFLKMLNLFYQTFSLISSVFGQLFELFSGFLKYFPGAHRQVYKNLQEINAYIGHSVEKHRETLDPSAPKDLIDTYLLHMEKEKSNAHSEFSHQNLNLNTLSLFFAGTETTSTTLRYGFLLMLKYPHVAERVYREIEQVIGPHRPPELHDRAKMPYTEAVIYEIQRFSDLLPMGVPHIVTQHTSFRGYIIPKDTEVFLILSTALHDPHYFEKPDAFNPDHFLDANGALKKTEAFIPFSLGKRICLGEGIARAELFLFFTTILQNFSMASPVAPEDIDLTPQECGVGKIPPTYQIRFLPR

CYP2C19 = CYP2C19 (Homo sapiens, UniProt P33261); assay: Inhibition of CYP2C19 in human liver microsomes assessed as enzyme-mediated metabolite formation at 30 uM using (S)-mephenytoin as substrate incubated for 5 mins followed by NADPH addition measured after 30 mins by LC-MS/MS analysis relative to control; set-up: scale not given: the % may be the effect or the level left; settings: probe (S)-mephenytoin, read-out: Activity
Chain of CYP2C19 (P33261 whole entry): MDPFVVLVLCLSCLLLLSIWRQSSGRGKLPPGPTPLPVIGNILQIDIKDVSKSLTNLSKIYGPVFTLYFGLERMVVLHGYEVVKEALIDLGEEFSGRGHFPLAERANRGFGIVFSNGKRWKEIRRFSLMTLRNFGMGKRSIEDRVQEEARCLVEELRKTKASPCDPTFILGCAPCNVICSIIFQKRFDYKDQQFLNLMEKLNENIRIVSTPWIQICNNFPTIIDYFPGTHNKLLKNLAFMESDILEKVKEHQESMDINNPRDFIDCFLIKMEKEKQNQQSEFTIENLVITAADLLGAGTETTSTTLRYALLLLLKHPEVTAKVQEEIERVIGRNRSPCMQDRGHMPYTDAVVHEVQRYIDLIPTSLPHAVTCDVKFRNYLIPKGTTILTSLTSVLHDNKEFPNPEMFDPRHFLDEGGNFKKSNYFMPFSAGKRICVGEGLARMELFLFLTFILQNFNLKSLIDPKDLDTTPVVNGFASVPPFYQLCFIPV

CYP2A6 [5] = target: T3, CYP2A6; assay: Inhibition of CYP2A6 in human liver microsomes assessed as enzyme-mediated metabolite formation at 0.3 uM using coumarin as substrate incubated for 5 mins followed by NADPH addition measured after 30 mins by LC-MS/MS analysis relative to control; set-up: scale not given: the % may be the effect or the level left; settings: probe coumarin, read-out: Activity
CYP2D6 [6] = target: T1, CYP2D6; assay: Inhibition of CYP2D6 in human liver microsomes assessed as enzyme-mediated metabolite formation at 10 uM using dextromethorphan as substrate incubated for 5 mins followed by NADPH addition measured after 30 mins by LC-MS/MS analysis relative to control; set-up: scale not given: the % may be the effect or the level left; settings: probe dextromethorphan, read-out: Activity
Cytochrome P450 1A2 = target: T5, Cytochrome P450 1A2 (Homo sapiens, UniProt P05177); assay: Inhibition of CYP1A2 in human liver microsomes using phenacetin as substrate preincubated for 20 mins followed by substrate addition measured after 30 mins in presence of NADPH by LC-MS/MS analysis
T5 sequence (P05177 whole entry): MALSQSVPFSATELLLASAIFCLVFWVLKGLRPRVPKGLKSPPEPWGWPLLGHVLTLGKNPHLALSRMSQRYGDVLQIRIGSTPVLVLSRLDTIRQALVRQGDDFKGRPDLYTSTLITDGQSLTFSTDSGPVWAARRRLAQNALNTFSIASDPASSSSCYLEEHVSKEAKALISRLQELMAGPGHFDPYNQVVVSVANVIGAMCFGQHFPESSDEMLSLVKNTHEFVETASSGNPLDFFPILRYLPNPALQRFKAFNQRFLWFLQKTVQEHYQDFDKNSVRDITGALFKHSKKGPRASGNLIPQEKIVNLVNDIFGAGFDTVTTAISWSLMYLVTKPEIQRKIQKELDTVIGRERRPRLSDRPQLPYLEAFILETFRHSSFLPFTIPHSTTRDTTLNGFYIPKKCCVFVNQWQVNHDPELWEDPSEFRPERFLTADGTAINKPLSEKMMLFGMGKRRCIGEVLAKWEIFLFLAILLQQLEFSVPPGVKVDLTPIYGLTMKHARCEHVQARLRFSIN

CYP2D6 [7] = target: T1, CYP2D6; assay: Inhibition of CYP2D6 in human liver microsomes assessed as enzyme-mediated metabolite formation at 0.3 uM using dextromethorphan as substrate incubated for 5 mins followed by NADPH addition measured after 30 mins by LC-MS/MS analysis relative to control; set-up: scale not given: the % may be the effect or the level left; settings: probe dextromethorphan, read-out: Activity
CYP3A4 [8] = target: T2, CYP3A4; assay: Inhibition of CYP3A4 in human liver microsomes assessed as enzyme-mediated metabolite formation at 10 uM using testosterone as substrate incubated for 5 mins followed by NADPH addition measured after 30 mins by LC-MS/MS analysis relative to control; set-up: scale not given: the % may be the effect or the level left; settings: probe testosterone, read-out: Activity

activity at 0.5 h, 3 µM (CYP2D6 [1]): 103%
activity at 0.5 h, 0.3 µM (CYP2C9): 93.6%
activity at 0.5 h, 0.3 µM (CYP3A4 [2]): 87.4%
activity at 0.5 h, 10 µM (CYP2D6 [3]): 99.4%
activity at 0.5 h, 1 µM (CYP2A6 [4]): 83.6%
activity at 0.5 h, 30 µM (CYP2B6): 37%
activity at 0.5 h, 30 µM (CYP2C19): 42%
activity at 0.5 h, 0.3 µM (CYP2A6 [5]): 83.8%
activity at 0.5 h, 10 µM (CYP2D6 [6]): 60.4%
pIC50 (Cytochrome P450 1A2): 4.71
activity at 0.5 h, 0.3 µM (CYP2D6 [7]): 76%
activity at 0.5 h, 10 µM (CYP3A4 [8]): 58.6%
SMILES: CCCCCCCC(=O)CCc1ccc(O)c(OC)c1

Reference: ChEMBL document CHEMBL4007467, “Effects of 6-paradol, an unsaturated ketone from gingers, on cytochrome P450-mediated drug metabolism” (Bioorg Med Chem Lett, 2017)
